Literature values in patent publication EP2932963A1, “Stable pharmaceutical dosage forms comprising Levothyroxine sodium” (Uni-Pharma Kleon Tsetis Pharmaceutical Laboratories S.A., priority 2014, dated 2015).
Read-outs that look alike come from different tables or passages of the source.

Columns and labels:
[1] = dependence on pH

pKa (amino group): 9.96
pKa (carboxyl group): 2.4
pKa (phenolic group): 6.87
Compound: N[C@@H](Cc1cc(I)c(Oc2cc(I)c(O)c(I)c2)c(I)c1)C(=O)O [Levothyroxine]
aqueous solubility [1]: reduces from pH 1 to 3 and increases above pH 7
